From ChEMBL document CHEMBL3507680, “University of Dundee, Gates Library screen for HepG2 cell viability”

Experiment: Human HepG2 cell viability assay in 384 well format
Type: toxicity, cell-based
Set-up: dose 125 nL, time 70.5 hour; cytotoxicity at 70.5 h: concentration not given beside the values
Conditions: HepG2 cells, read-out: Inhibition

Compound | cytotoxicity at 70.5 h [%]
CC(C)Oc1cccc(C(=O)C2CCCN(C(=O)c3ccoc3)C2)c1 (stereo unspecified) | -9.57
COCCN(C)Cc1cn(C)nc1-c1ccc2c(c1)OCCO2 | -7.93
Cc1ncc(CN(C)C2CCCN(CCc3ccccc3)C2)n1C (stereo unspecified) | -9.12
COc1cccc(CN2CC(=O)N(c3ccccc3C)CC2C)c1OC (stereo unspecified) | -6.78
O=C(CSC(F)(F)F)N1CCC2(CCCN(C3CCOCC3)C2=O)C1 (stereo unspecified) | 15
CCc1ccc(CN2CCCC(c3nn(C)c(=O)n3CC)C2)nc1 (stereo unspecified) | -9.19
CN(Cc1ccon1)C(=O)CN1C(=O)OC(C)(C)C1=O | -11.5
CC(C)N1CCC(C(=O)NC[C@H]2CCc3ccccc3O2)CC1 | -17.4
Cc1nc2ccccn2c1CN1C[C@@H](CN(C)CCO)[C@@H](CO)C1 | 5.92
CC(C)(C)c1cc(CN2C[C@@H]3CC[C@H](C2)N(Cc2ccccn2)C3)n[nH]1 | -9.78
CCN(CC)c1ncccc1CNC(=O)c1cnn(CC)c1 | -3.9
O=C(C1CCOCC1)N1C[C@H]2CC[C@@H]1CN(Cc1ccncc1)C2 | -6.05
Cc1ccc(C2(O)CCN(C(=O)CCn3c(C)cccc3=O)CC2)nc1 | 27.8
CC(C)(O)CCc1cccc(C(=O)N2Cc3cnn(CCO)c3C2)c1 | -17.1
COc1ccc(F)cc1-n1cnc(CCNC(C)=O)c1 | 16.3
Cc1nccc(N2C[C@H](NC(=O)CNS(C)(=O)=O)[C@@H](C3CC3)C2)n1 | -5
Cc1cc(C(=O)N2CCCC(O)(CN3CCCC3)C2)ccc1Cl (stereo unspecified) | 1.99
C[C@H](NC(=O)c1cnc(-c2ccccc2)nc1O)C(N)=O | -7.97
Cc1ccc(O)c(CN2CCCCC2CCN2CCOCC2)c1 (stereo unspecified) | -7.89
CCOCCn1nc(C)cc1C(=O)N1CC(C)(C)[C@@](C)(O)C1 | -2.57
CCc1nccc(CN2CCC(CNC(=O)Nc3ccccc3)C2)n1 (stereo unspecified) | 18.8
COc1ccc2c(c1)OCC(Cc1ccc(N)nc1C)C2 (stereo unspecified) | -8.63
FC(F)(F)CCc1ccnc(N2CCN(CCc3ccncc3)CC2)n1 | -6.22

Compound | cytotoxicity at 70.5 h [%]
COCCC1(C(=O)O)CCCN(C(=O)c2cc(F)ccc2OC)C1 (stereo unspecified) | -10.6
CC(C)c1cc(C(=O)N2CCCC3(CCNC3)C2)no1 (stereo unspecified) | -3.49
Cc1ccnc(CC(C)N(C)c2cc(C3CCNCC3)nc(C)n2)c1 (stereo unspecified) | -3
O=C1N(CCc2ccccc2)CCCC12CCN(C(CO)CO)C2 (stereo unspecified) | -4.14
COc1cccc(-n2cc(-c3ccnc(N[C@H](CO)C(C)C)n3)cn2)c1 | -2.44
Cc1nc2cc(CNC(=O)C3CC(=O)N(C4CCCC4)C3)ccc2n1C (stereo unspecified) | -7.58
CN(Cc1ccsc1)C(=O)C1CCC(=O)N(Cc2ccccn2)C1 (stereo unspecified) | -5.03
CCC(C(=O)N(C)C)N1CCC(c2nccn2Cc2cscn2)CC1 (stereo unspecified) | -10
COCc1nc(N(C)C/C=C/c2ccccc2)c2cnn(C)c2n1 | -8.43
CCCOCCN1CCN(c2ncnc3[nH]ccc23)CC1 | 1.69
OC[C@@H]1CCCN1c1ccc(-c2nc(CCc3ccccc3)no2)cn1 | -4.61
COCC(C)NCc1nc(-c2ccc(C)cc2)c(-c2ccccn2)[nH]1 (stereo unspecified) | -1.81
O=C(NCCCOc1cccnc1)c1cn(Cc2ccccc2F)nn1 | -12.2
CCc1csc(CNC2CCN(c3ccc(C)cc3)CC2)n1 | 2.12
Cc1ccc(CNC(=O)CC2C(=O)NCCN2Cc2ccccc2C)s1 (stereo unspecified) | -0.0744
Cn1ccnc1CN(CCO)Cc1ccc(C(F)(F)F)cc1 | -6.45
Cc1noc(-c2ccc(N(C)Cc3nccs3)nc2)n1 | -9.04
CNS(=O)(=O)CCn1cc(-c2ccc(OC)c(OC)c2)nn1 | -4.16
Cc1ccccc1-n1cc(CNc2ncnc3c2CCNCC3)cn1 | -13.6
Cc1nc(N(C)C)ncc1C(=O)NCCc1csc(-c2ccncc2)n1 | -12.4
CCc1cc(N[C@H](C(N)=O)[C@@H](C)CC)n2nccc2n1 | -1.65
CCCc1nnc(NC2CCN(C3CCCC3)CC2)o1 | -12.5
COCc1ncc(CN2CCN(C)C(=O)C2C)cn1 (stereo unspecified) | -13.5

Compound | cytotoxicity at 70.5 h [%]
Cc1cc(CN(C)C2CCN(c3cccc(-c4cscn4)c3)CC2)on1 | -2.57
COCCN(C)C(C(=O)O)c1ccc(C)c(C)c1 (stereo unspecified) | 0.276
CC[C@@H](CO)NC(=O)c1cccc(CCC(C)(C)O)c1 | -6.14
Cc1ccc2c(-c3nc4c([nH]3)CCNC4C(=O)O)cccc2n1 (stereo unspecified) | -0.899
CNC(=O)C1CCN(c2nccc(CCC(F)(F)F)n2)C1 (stereo unspecified) | -3.72
O=C(O)c1ccccc1C1CCN(C2CCN(c3ccccc3)CC2)C1 (stereo unspecified) | 0.408
CC(=O)Nn1c(C)cc(CN2CCC(C(=O)N3CCCC3)CC2)c1C | -2.42
CC(C)N1CCCC(C(=O)N2CCN(c3nsc4ccccc34)CC2)C1 (stereo unspecified) | 1.52
Cc1nc[nH]c1-c1c(-c2ccccc2)ncn1C1CCNC1 (stereo unspecified) | -1.75
O=C(c1cnc(O)cn1)N1CCCC1c1nc2cc(F)ccc2[nH]1 (stereo unspecified) | -4.45
COCc1ccc(C(=O)N2CCN(CC=C(C)C)[C@@H]3CS(=O)(=O)C[C@@H]32)o1 | -0.472
CCCn1cc(-c2cc(-c3cnc(OC)nc3)c(C#N)c(N)n2)c(C)n1 | -7.45
CN(Cc1nccs1)C1CCN(c2ncccn2)CC1 | -8.38
CCC(Nc1nc(C)nc2onc(C)c12)c1nc(C)c(C)s1 (stereo unspecified) | 24.7
CSC(C)CCN1CCC(n2cc(C3CCCCC3)nn2)CC1 (stereo unspecified) | -1.37
c1cncc(OCCCNC2COc3ccccc3C2)c1 (stereo unspecified) | -3.91
Cc1cccnc1[C@H](C)NC(=O)c1cccc(CC2CCNCC2)c1 | 0.55
CCN(CC)C(=O)[C@@H]1C[C@@H](NC(=O)c2ccoc2)CN1C | 25.9
Cn1ccc(NC(=O)CN2C[C@H]3CC[C@@H]2CN(S(C)(=O)=O)C3)n1 | 0.433
COCc1ncn(Cc2nc(-c3ccc(OC)c(OC)c3)oc2C)n1 | 27.5
COc1cccc(Cl)c1-c1cc(CN)ccc1F | -13.8
O=C(c1sccc1Cl)N1CCC(Cn2cc(CO)nn2)CC1 | -4.2
Cc1ccc(N2CCC(C(O)Cc3ccccc3)CC2)nn1 (stereo unspecified) | 1.34

Compound | cytotoxicity at 70.5 h [%]
NC(=O)COc1ccc(CN2CCC3(CC2)[C@H](O)C[C@@H]3O)cc1Cl | 19.2
COCCN(Cc1cccs1)C(=O)c1ccc(=O)n(C)c1 | -10.2
O=C(Nc1ccc2scnc2c1)N1CCN([C@H]2CCCC[C@@H]2O)CC1 | -13.6
Cc1n[nH]c(C)c1CCNC(=O)C1CCCN(CC(N)=O)C1 (stereo unspecified) | -1.91
Cc1cnc(C)c(N2CCC(c3nccn3Cc3cscn3)CC2)n1 | 14.9
CC(C)[C@@H]1CN(C(=O)c2ccc3c(c2)CCCO3)C[C@H]1NS(C)(=O)=O | -1.93
CCCSc1ncc(CN2CCN(C)C(=O)C2C)cn1 (stereo unspecified) | 20.3
Cc1[nH]c2ccc(CNc3cc(C(=O)NC(C)C)ccn3)cc2c1C | -1.62
Cc1cc(C(=O)N2CCC(CCn3cccn3)CC2)c(C)o1 | -5.22
COc1ccc(CN2CCC3(CCCN(C)C3=O)C2)c(OC)c1C (stereo unspecified) | -10.1
O=C(c1cccc(S(=O)(=O)NCCCn2cccn2)c1)N1CCOCC1 | -1.43
Cc1ncc(C(=O)N2CC[C@@]3(O)CCN(C(=O)N(C)C)C[C@H]3C2)cn1 | -12.2
COc1nc2c(cc1C(=O)NCc1nc(CSC)no1)CCC2 | -5.89
c1ccc(C2CCCN(c3ncnc4c3CCNC4)CC2)cc1 (stereo unspecified) | 2.81
CC(=O)N1CCc2[nH]cnc2C12CCN(C(=O)Cc1cccs1)CC2 | -9.66
Cc1nc(NC2CCS(=O)(=O)CC2)cc(C2CCCNC2)n1 (stereo unspecified) | -7.39
O=C(CCN1CCCCO1)NCCSc1cnn[nH]1 | -3.27
CNc1ccc(C)cc1C(=O)N[C@H]1C[C@H]2CN(C)CCN2C1 | -13.3
CCC(OC)C(=O)N1CCC2(CC1)c1nc[nH]c1CCN2S(C)(=O)=O (stereo unspecified) | 32.6
Cc1n[nH]c(CCC(=O)N2CCOC(Cc3ccc(F)cc3)C2)c1C (stereo unspecified) | 10.5
Cc1nc[nH]c1-c1nccn1-c1cccc(CN2CCCC2)c1 | 13
CCOC(=O)CNC(=O)N1CCOC(Cc2ccc(OC)cc2)C1 (stereo unspecified) | -0.738
CC(C)C1CN(S(=O)(=O)N(C)C)CCCN1Cc1ccc(F)cc1 (stereo unspecified) | 2.12

Compound | cytotoxicity at 70.5 h [%]
c1ccc(CCCC2CN(Cc3ncc[nH]3)CCO2)cc1 (stereo unspecified) | -6.86
O=C(c1ccc(S(=O)(=O)NCc2ccon2)cc1)N1CCCCCC1 | -7.49
Cc1cccnc1[C@H](C)Nc1nc(-c2cccnc2)nc2c1CNC2 | -8.07
COc1ccc2c(=O)n(CC3CCCN(C)C3)ccc2c1OC (stereo unspecified) | 10.5
Cc1nn(C2CCCC2)c2nc(C(C)(C)CN3CCN(C)CC3)[nH]c12 | -2.47
CC(C)c1nccn1C(C)C(=O)N1CCN(c2ccccc2Cl)CC1 (stereo unspecified) | -4.99
CCCN1CCN(C(=O)c2cc[nH]n2)[C@H]2CS(=O)(=O)C[C@H]21 | -11.3
O=C(O)c1cc(C2=CCCCC2)cc(S(=O)(=O)NCc2ccccn2)c1 | -8.44
CC(C)c1nnc(N2C[C@@H]3CC[C@H](C2)N(CC2CCC2)C3)s1 | -2.56
CC(C)c1ncc(CN2C[C@@H](CN3CCCC3)[C@@H](CO)C2)cn1 | 0.637
COc1cc(N2C[C@@H]3CC[C@H](C2)N(CC2CCC2)C3=O)ncn1 | -3.49
O=C1CCN(Cc2cnc3c(-c4ccccc4)cnn3c2)CCN1 | -9.5
Cc1ccc(OCC2CCCN(c3nc(CO)cs3)C2)cc1 (stereo unspecified) | -0.763
O=C(NCc1cnn2cccnc12)c1cccc(CC2CCNCC2)c1 | 5.06
CC(C)=CCCC(C)CN1CCC(n2cc(CO)nn2)CC1 (stereo unspecified) | -4.45
CN(CC(=O)N1CCOCC(CO)C1)Cc1ccc(F)cc1 (stereo unspecified) | -12.7
O=C(C1CCOC1)N1CCC(Cn2cc(-c3ccsc3)nn2)CC1 (stereo unspecified) | -11.1
COc1ncccc1-c1ncccc1NC(=O)C(C)C | -6.31
CCn1c(CC2CCN(S(=O)(=O)N3CCCCC3)CC2)nn(C)c1=O | -3.16
